For test [1], the target named is T1, Dual specificity mitogen-activated protein kinase kinase 7 (Homo sapiens) (UniProt O14733).
T1 sequence (whole entry): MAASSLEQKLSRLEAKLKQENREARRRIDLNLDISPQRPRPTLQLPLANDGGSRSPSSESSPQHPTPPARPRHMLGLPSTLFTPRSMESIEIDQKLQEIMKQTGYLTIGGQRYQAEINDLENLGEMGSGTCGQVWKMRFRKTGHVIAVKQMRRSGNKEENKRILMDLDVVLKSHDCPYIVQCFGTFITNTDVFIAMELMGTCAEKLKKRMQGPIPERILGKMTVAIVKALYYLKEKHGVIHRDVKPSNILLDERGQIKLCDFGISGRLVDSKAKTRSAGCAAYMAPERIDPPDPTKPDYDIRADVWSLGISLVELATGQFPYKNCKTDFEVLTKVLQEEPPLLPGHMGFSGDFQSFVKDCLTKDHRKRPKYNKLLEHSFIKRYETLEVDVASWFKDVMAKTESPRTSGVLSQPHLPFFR
As to the kind of experiment: Selectivity interaction (Upstate Kinase Profiler service (Millipore)) EUB0000056c MAP2K7. The conditions noted are these: at 1 µM.

Test [2] concerns the target T2, Myosin-IIIb (Homo sapiens) (UniProt Q8WXR4).
T2 sequence (whole entry): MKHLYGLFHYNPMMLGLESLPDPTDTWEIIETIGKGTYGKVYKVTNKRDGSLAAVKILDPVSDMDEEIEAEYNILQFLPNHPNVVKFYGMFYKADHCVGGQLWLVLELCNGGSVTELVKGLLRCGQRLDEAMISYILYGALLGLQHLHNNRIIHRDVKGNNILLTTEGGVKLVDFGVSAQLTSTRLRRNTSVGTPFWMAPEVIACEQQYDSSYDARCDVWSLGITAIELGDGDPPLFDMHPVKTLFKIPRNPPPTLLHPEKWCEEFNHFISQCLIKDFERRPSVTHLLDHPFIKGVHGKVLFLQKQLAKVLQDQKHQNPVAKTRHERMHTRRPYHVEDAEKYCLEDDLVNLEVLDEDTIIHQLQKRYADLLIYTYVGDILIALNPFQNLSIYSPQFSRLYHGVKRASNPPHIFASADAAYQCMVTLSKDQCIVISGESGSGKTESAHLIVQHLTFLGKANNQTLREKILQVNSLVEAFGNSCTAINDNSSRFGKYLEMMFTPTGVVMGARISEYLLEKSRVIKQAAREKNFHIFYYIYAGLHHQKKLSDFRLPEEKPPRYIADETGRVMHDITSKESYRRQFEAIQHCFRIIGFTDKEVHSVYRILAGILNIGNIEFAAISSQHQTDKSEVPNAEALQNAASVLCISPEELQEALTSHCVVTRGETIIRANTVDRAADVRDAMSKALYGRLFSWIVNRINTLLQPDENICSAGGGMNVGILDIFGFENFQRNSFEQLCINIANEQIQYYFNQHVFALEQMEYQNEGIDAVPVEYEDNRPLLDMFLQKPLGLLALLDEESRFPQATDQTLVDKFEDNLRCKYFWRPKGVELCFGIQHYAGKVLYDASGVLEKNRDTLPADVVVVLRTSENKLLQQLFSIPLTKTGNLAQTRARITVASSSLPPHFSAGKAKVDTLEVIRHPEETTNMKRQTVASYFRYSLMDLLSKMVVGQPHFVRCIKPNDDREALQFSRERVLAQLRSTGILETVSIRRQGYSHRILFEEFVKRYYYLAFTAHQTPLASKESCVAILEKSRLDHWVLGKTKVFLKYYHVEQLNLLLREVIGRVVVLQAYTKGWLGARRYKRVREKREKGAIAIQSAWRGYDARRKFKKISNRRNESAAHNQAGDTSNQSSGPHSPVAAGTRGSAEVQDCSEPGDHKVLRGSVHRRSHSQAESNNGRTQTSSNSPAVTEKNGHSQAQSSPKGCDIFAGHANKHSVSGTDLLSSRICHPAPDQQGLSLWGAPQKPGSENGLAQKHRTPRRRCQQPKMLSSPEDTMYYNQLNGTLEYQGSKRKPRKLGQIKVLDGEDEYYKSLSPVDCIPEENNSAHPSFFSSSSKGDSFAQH
To be noted: at 10 µM.

The target of test [3] is Microtubule-associated serine/threonine-protein kinase 1 (Homo sapiens) (UniProt Q9Y2H9). The conditions noted are these: at 10 µM.
Test [4] addresses Cyclin-dependent kinase 13 (Homo sapiens, UniProt Q14004). As to the kind of experiment: Selectivity interaction (KinomeScan (DiscoverX)) EUB0001049a CDK13. To be noted: at 1 µM.
Test [5] addresses Receptor tyrosine-protein kinase erbB-2 (Homo sapiens, UniProt P04626). As to the kind of experiment: Selectivity interaction (KinomeScan (DiscoverX)) EUB0000045b ERBB2.
In test [6] the target is Mitogen-activated protein kinase 14 (Homo sapiens, UniProt Q16539). As to the kind of experiment: Selectivity interaction (ActivX KiNativ screen (kinase selectivity in THP-1 cell lysates)) EUB0000639a MAPK14. The test is classed as subcellular. To be noted: lysate, at 5 µM.
Test [7] addresses T3, Beta-adrenergic receptor kinase 1 (Homo sapiens) (UniProt P25098).
T3 sequence (whole entry): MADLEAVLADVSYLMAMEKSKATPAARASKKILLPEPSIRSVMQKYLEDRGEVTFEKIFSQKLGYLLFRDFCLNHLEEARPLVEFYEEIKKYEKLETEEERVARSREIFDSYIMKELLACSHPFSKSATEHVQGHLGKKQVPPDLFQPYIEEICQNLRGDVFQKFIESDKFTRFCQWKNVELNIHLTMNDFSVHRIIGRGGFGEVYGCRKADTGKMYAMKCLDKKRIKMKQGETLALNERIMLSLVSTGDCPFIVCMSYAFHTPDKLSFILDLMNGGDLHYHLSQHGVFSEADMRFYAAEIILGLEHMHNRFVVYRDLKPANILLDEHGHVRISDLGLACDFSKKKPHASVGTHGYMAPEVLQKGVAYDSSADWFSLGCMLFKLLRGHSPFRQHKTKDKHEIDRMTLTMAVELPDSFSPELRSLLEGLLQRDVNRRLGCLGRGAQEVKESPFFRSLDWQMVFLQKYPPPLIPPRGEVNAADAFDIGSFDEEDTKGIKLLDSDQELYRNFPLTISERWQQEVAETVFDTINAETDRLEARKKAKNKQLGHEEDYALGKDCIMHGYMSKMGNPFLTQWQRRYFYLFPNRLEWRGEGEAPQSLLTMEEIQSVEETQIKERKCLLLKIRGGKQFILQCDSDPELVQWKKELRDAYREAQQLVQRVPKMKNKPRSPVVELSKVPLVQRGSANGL
As to the kind of experiment: Selectivity interaction (KinomeScan (DiscoverX)) EUB0000229b ADRBK1. The conditions noted are these: at 10 µM.

Test [8] concerns the target Phosphatidylinositol 4,5-bisphosphate 3-kinase catalytic subunit beta isoform (Homo sapiens) (UniProt P42338). Put plainly: Selectivity interaction (KinomeScan (DiscoverX)) EUB0000877a PIK3CB. To be noted: at 10 µM.
Test [9] concerns the target Rho-associated protein kinase 2 (Homo sapiens, UniProt O75116). As to the kind of experiment: Selectivity interaction (ActivX KiNativ screen (ex vivo kinase selectivity in human PBMCs)) EUB0001619a ROCK2. The test is classed as cell-based. To be noted: PBMC, at 1 µM.

The values that follow come from ChEMBL document CHEMBL5465560, “Selectivity Literature for EUbOPEN Chemogenomic Library” (2024).

Chain of Receptor tyrosine-protein kinase erbB-2 (P04626 whole entry): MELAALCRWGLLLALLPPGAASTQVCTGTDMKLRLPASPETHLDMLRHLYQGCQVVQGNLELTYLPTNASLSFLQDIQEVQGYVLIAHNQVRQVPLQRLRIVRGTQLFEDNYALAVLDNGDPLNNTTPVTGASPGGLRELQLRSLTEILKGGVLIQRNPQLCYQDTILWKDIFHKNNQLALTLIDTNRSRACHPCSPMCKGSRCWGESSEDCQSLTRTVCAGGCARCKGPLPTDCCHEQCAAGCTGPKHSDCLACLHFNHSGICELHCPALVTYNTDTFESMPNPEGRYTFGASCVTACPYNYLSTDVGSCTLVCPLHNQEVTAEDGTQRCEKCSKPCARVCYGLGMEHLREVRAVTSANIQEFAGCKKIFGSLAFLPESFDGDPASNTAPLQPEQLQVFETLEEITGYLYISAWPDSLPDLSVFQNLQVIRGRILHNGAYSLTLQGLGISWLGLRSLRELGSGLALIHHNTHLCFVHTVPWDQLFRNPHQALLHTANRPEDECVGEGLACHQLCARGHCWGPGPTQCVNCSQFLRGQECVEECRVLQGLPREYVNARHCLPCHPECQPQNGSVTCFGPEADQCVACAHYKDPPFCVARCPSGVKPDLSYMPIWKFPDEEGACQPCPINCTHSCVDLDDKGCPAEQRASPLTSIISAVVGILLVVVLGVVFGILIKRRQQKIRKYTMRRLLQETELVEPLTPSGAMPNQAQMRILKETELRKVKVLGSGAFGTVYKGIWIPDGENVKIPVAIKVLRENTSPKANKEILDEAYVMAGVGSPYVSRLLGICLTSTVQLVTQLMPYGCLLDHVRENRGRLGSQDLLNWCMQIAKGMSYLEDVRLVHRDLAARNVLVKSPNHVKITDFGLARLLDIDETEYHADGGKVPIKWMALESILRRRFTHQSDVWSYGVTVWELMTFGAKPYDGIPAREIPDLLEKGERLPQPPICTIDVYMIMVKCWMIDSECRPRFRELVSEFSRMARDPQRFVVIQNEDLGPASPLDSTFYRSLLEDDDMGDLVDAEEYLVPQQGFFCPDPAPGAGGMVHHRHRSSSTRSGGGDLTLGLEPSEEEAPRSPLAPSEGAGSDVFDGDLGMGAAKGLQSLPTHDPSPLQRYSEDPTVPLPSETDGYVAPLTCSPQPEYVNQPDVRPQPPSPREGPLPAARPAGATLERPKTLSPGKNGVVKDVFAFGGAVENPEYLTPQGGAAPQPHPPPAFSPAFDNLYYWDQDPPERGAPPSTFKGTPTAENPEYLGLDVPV
Chain of Phosphatidylinositol 4,5-bisphosphate 3-kinase catalytic subunit beta isoform (Homo sapiens) (P42338 whole entry, looked up, canonical isoform): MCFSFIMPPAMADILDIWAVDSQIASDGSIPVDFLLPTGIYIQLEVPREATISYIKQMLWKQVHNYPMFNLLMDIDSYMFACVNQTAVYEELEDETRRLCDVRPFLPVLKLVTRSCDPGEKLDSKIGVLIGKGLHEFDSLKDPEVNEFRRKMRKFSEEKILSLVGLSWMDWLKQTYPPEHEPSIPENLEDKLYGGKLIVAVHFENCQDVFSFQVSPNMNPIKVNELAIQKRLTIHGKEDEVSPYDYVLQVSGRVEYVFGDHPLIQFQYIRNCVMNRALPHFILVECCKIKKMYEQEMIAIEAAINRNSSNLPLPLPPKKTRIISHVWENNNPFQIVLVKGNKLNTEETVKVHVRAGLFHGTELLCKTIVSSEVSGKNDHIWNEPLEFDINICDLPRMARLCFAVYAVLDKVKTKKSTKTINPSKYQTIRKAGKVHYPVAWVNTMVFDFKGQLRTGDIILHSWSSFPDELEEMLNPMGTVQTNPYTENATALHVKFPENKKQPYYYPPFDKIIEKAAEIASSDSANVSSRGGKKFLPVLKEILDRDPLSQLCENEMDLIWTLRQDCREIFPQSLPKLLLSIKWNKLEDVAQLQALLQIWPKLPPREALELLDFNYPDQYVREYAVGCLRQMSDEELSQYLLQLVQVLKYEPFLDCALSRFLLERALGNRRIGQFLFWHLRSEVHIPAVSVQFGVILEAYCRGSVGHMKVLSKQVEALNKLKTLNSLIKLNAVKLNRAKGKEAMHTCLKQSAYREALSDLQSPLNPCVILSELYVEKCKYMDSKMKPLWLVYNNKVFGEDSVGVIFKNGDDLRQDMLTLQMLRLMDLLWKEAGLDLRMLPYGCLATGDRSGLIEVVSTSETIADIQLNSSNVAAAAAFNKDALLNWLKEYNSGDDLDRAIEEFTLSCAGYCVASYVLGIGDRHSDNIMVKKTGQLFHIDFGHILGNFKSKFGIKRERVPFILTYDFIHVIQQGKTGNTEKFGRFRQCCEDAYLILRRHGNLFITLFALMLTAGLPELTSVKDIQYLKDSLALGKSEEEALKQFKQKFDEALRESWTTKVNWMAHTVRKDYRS
Chain of Microtubule-associated serine/threonine-protein kinase 1 (Homo sapiens) (Q9Y2H9 whole entry, looked up): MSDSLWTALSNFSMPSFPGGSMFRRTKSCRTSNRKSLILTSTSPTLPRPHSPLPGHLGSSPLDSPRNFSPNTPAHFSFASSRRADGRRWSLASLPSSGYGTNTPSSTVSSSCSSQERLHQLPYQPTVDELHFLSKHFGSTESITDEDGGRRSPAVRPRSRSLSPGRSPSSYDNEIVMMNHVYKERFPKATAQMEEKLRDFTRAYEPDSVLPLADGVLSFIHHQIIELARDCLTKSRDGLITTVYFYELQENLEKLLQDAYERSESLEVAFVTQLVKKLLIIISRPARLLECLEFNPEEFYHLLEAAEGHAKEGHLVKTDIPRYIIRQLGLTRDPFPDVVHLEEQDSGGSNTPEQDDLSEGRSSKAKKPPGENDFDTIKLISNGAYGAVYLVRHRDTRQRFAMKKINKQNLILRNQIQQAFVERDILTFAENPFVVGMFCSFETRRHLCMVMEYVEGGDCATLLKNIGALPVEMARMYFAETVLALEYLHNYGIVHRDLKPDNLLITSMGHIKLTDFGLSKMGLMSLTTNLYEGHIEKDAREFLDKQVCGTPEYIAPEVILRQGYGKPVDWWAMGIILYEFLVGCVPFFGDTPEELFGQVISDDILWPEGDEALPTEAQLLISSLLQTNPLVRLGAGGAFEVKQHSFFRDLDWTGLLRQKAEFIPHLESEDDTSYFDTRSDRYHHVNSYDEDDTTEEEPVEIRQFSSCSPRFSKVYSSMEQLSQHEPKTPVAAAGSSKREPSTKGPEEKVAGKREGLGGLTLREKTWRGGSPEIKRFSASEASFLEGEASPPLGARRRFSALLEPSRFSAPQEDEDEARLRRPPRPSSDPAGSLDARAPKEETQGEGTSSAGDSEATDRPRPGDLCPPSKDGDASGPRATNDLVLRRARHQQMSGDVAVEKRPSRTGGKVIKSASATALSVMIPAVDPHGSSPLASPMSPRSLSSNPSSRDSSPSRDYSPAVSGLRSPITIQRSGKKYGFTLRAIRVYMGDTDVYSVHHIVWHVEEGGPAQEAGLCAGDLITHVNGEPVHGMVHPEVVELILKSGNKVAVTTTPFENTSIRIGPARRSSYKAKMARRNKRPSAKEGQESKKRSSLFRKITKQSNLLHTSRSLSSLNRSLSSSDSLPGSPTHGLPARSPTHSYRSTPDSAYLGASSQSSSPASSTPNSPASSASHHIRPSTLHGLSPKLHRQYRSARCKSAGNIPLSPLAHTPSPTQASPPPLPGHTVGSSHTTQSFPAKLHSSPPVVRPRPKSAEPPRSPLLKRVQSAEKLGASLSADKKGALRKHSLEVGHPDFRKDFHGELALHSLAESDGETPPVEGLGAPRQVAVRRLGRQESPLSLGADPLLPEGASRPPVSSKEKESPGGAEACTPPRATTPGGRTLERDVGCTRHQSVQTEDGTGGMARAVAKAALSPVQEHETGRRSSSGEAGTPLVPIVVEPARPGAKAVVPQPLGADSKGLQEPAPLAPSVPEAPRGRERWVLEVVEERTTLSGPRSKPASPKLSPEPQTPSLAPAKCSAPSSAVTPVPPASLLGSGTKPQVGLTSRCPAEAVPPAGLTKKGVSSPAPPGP
Chain of Mitogen-activated protein kinase 14 (Q16539 whole entry): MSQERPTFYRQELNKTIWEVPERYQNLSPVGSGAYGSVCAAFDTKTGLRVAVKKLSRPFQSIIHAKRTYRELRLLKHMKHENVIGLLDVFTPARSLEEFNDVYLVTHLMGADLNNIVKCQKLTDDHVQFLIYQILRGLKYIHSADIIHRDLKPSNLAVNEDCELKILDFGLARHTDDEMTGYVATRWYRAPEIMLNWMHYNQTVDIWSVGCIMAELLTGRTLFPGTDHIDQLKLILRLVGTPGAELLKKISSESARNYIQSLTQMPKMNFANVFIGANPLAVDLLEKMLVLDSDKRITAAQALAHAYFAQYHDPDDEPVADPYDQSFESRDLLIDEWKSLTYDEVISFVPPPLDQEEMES

Consider `Cc1ccc(-c2ccc3c(ccc4sc5c(c43)NC[C@@H](C)NC5=O)n2)cn1`, for which, in [1], the % of inhibition is -8%.
Take `Cc1cc([C@@H](C)Nc2ccccc2C(=O)O)c2nc(N3CCOCC3)cc(=O)n2c1` [AZD-6482]: the % of control amounted to 93% in test [2] and 100% in test [3].
With `COc1cc(Nc2nc(C)cc(-c3cnn4nc(OC)ccc34)n2)cc(C(F)(F)F)c1`, the % of control in test [4] turned out to be 100%.
Regarding `C=CC(=O)Nc1cc(-n2c(=O)ccc3cnc4ccc(-c5ccc(NS(C)(=O)=O)cc5)cc4c32)ccc1C`, the % of control was determined as 90% in test [5] (at 1 µM) and 26% in [5] (at 10 µM).
On to `CC[C@@H]1[C@H](F)C(=O)N[C@@H]1COc1nccc2cc(C(N)=O)c(OC)cc12` [ZIMLOVISERTIB], for which the % of inhibition in test [6] was -3.8%.
For the molecule `COc1cc(N(C)c2ccnc3ccc(C(F)(F)F)cc23)cc(OC)c1OC`, the % binding in [7] was 92%.
For `CCC(=O)N1CC[C@H](Nc2ncnc3c2CN(c2cnc(OC)c(C(F)(F)F)c2)CC3)C1` [LENIOLISIB], the % of inhibition in [8] is 98%.
`N#Cc1cccc(-c2c[nH]c3ncnc(N4CCOCC4)c23)c1`: the % of inhibition in [9] came out at 2%.
